# Results from patent US20220073536A1 (Rigel Pharmaceuticals, Inc., priority 2003, published 2022).
# Key:
# [1] = test system: cultured human mast cells (CHMC); assay: CHMC low cell density IgE activation: tryptase assay; type: cell-based; conditions: low cell density CHMC, IgE activation
# How it was run: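 Tryptase release was read from supernatant with a fluorogenic substrate (30 min, room temperature) after anti-IgE challenge of cultured human mast cells (1000–1500 cells/well, low density) for 30 minutes at 37° C.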
# [2] = test system: cultured human mast cells (CHMC); assay: CHMC low cell density ionomycin activation: tryptase assay; type: cell-based; conditions: low cell density CHMC, 3 pt, read-out: LD Tryptase, CHMC, Iono, 3 pt
# [3] = Homo sapiens, Mast cell, tryptase readout, 3 pt, read-out: LD Tryptase, CHMC, IgE, 3 pt
# [4] = Homo sapiens, Mast cell, tryptase readout
# [5] = Homo sapiens, Mast cell, tryptase, 3 pt, read-out: LD Tryptase, CHMC, IgE, 3 pt
# [6] = Homo sapiens, Mast cell, tryptase
# [7] = Homo sapiens, Mast cell, tryptase, 8 pt, read-out: LD Tryptase, CHMC, IgE, 8 pt
# [8] = tryptase, 3 pt, read-out: LD Tryptase, CHMC, IgE, 3 pt
# [9] = tryptase, 8 pt, read-out: LD Tryptase, CHMC, IgE, 8 pt
SMILES,"IC50 [1, 5] [µM]","IC50 [2, 6] [µM]",also measured
"CCOC(=O)c1cc2cccc(Nc3ncc(F)c(NC4CCC4)n3)c2[nH]1 [Compound 1107, N4-Cyclobutyl-N2-[2-(ethoxycarbonyl)indol-7-yl]-5-fluoro-2,4-pyrimidinediamine]",,,"IC50 [1, 3]: < 10 µM; IC50 [2, 4]: < 10 µM"
"Fc1cnc(Nc2cccc(N3CCOCC3)c2)nc1NC1CCC1 [Compound 1108, N4-Cyclobutyl-5-fluoro-N2-(3-morpholinophenyl)-2,4-pyrimidinediamine]",,,"IC50 [1, 3]: < 10 µM; IC50 ([1]; Homo sapiens, Mast cell, tryptase readout, 8 pt, read-out: LD Tryptase, CHMC, IgE, 8 pt): < 10 µM; IC50 [2, 4]: > 10 µM"
"CCOC(=O)N1CCN(c2cccc(Nc3ncc(F)c(NC4CCC4)n3)c2)CC1 [Compound 1109, N4-Cyclobutyl-N2-[3-(4-ethoxycarbonylpiperazino)pheny]-5-fluoro-2,4-pyrimidinediamine]",,,"IC50 ([1]; tryptase readout, 3 pt, read-out: LD Tryptase, CHMC, IgE, 3 pt): < 10 µM; IC50 ([2]; tryptase readout): > 10 µM"
"CN1CCN(c2ccc(Nc3ncc(F)c(NC4CCC4)n3)cc2)CC1 [Compound 1110, N4-Cyclobutyl-5-fluoro-N2-[4-(4-methylpiperazino)phenyl]-2,4-pyrimidinediamine]",,,"IC50 [1, 3]: < 10 µM; IC50 [2, 4]: > 10 µM"
"CCOC(=O)N1CCN(c2ccc(Nc3ncc(F)c(NC4CCC4)n3)cc2)CC1 [Compound 1111, N4-Cyclobutyl-N2-[4-(4-ethoxycarbonylpiperazino)phenyl]-5-fluoro-2,4-pyrimidinediamine]",< 10,> 10,
CC(=O)N1CCN(c2cccc(Nc3ncc(F)c(Nc4cc(C5CC5)n[nH]4)n3)c2)CC1 [Compound 1112],< 10,< 10,"IC50 [1, 7]: < 10 µM"
"CN1CCN(c2ccc(Nc3ncc(F)c(Nc4cc(C5CC5)n[nH]4)n3)cc2)CC1 [Compound 1113, N4-(3-Cyclopropyl-1H-pyrazol-5-yl)-5-fluoro-N2-[4-(4-methylpiperazino)phenyl]-2,4-pyrimidinediamine]",< 10,> 10,"IC50 [1, 7]: < 10 µM"
Fc1cnc(Nc2cccc(N3CCOCC3)c2)nc1Nc1cc(C2CC2)n[nH]1 [Compound 1114],< 10,> 10,"IC50 [1, 7]: < 10 µM"
CCOC(=O)N1CCN(c2cccc(Nc3ncc(F)c(Nc4cc(C5CC5)n[nH]4)n3)c2)CC1 [Compound 1115],< 10,< 10,
"CCOC(=O)N1CCN(c2ccc(Nc3ncc(F)c(Nc4cc(C5CC5)n[nH]4)n3)cc2)CC1 [Compound 1116, N4-(3-Cyclopropyl-1H-pyrazol-5-yl)-N2-[4-(4-ethoxycarbonylpiperazino)phenyl]-5-fluoro-2,4-pyrimidinediamine]",< 10,< 10,
"Fc1cnc(Cl)nc1Nc1ccc2c(n1)NCCO2 [Compound 1117, 2-Chloro-5-fluoro-N4-(3,4-dihydro-2H,4H-5-pyrid[1,4]oxazin-6-yl)-4-pyrimidineamine]",,,"IC50 [1, 8]: > 10 µM; IC50 ([2]; tryptase): > 10 µM"
"CC(C)(C)OC(=O)N1CC(Nc2nc(Nc3ccc(N4CCOCC4)cc3)ncc2F)C1 [Compound 1118, N4-(1-tert-Butoxycarbonylazetidin-3-yl)-5-fluoro-N2-(4-morpholinophenyl)-2,4-pyrimidinediamine]",< 10,< 10,
"CC(=O)N1CCN(c2ccc(Nc3ncc(F)c(NC4CN(C(=O)OC(C)(C)C)C4)n3)cc2)CC1 [Compound 1119, N2-[4-(4-Acetylpiperazino)phenyl]-N4-(1-tert-butoxycarbonylazetidin-3-yl)-5-fluoro-2,4-pyrimidinediamine]",< 10,> 10,
"CC(=O)N1CCN(c2cccc(Nc3ncc(F)c(NC4CN(C(=O)OC(C)(C)C)C4)n3)c2)CC1 [Compound 1120, N2-[3-(4-Acetylpiperazino)phenyl]-N4-(1-tert-butoxycarbonylazetidin-3-yl)-5-fluoro-2,4-pyrimidinediamine]",> 10,> 10,
Fc1cnc(Nc2ccc(N3CCOCC3)cc2)nc1Nc1cc(C2CC2)n[nH]1 [Compound 1121],< 10,> 10,"IC50 [1, 7]: < 10 µM"
CCOC(=O)N1CCN(c2ccc(Nc3ncc(F)c(NC4CN(C(=O)OC(C)(C)C)C4)n3)cc2)CC1 [Compound 1122],< 10,> 10,
Fc1cnc(Nc2ccc(N3CCOCC3)cc2)nc1NC1CNC1 [Compound 1123],> 10,< 10,
CC(=O)N1CCN(c2ccc(Nc3ncc(F)c(NC4CNC4)n3)cc2)CC1 [Compound 1124],> 10,> 10,

SMILES,"IC50 [1, 5] [µM]","IC50 [2, 6] [µM]",also measured
CCOC(=O)N1CCN(c2ccc(Nc3ncc(F)c(NC4CNC4)n3)cc2)CC1 [Compound 1125],> 10,> 10,
Fc1cnc(Nc2cccc(N3CCOCC3)c2)nc1NC1CNC1 [Compound 1126],> 10,< 10,
CC(=O)N1CCN(c2cccc(Nc3ncc(F)c(NC4CNC4)n3)c2)CC1 [Compound 1127],< 10,> 10,
"Fc1cnc(Nc2ccc(N3CCOCC3)cc2)nc1Nc1ccc2c(n1)NCCO2 [Compound 1128, N4-(3,4-Dihydro-2H,4H-5-pyrid[1,4]oxazin-6-yl)-5-fluoro-N2-(4-morpholinophenyl)-2,4-pyrimidinediamine]",,,"IC50 [1, 9]: < 10 µM; IC50 ([2]; tryptase): > 10 µM"
"CN(c1nc(Nc2ccc(N3CCOCC3)cc2)ncc1F)C1CCC1 [Compound 1139, N4-Cyclobutyl-5-fluoro-N4-methyl-N2-(4-morpholinophenyl)-2,4-pyrimidinediamine]",< 10,> 10,
"CC(=O)N1CCN(c2ccc(Nc3ncc(F)c(N(C)C4CCC4)n3)cc2)CC1 [Compound 1140, N2-[4-(4-Acetylpiperazino)phenyl]-N4-cyclobutyl-5-fluoro-N4-methyl-2,4-pyrimidinediamine]",< 10,> 10,
"CN1CCN(c2ccc(Nc3ncc(F)c(Nc4ccc5c(n4)NCCO5)n3)cc2)CC1 [Compound 1141, N4-(3,4-Dihydro-2H,4H-5-pyrid[1,4]oxazin-6-yl)-5-fluoro-N2-[4-(4-methylpiperazino)phenyl]-2,4-pyrimidinediamine]",,,"IC50 [1, 8]: < 10 µM; IC50 [1, 9]: < 10 µM; IC50 ([2]; tryptase): > 10 µM"
"CN1CCN(c2cccc(Nc3ncc(F)c(Nc4ccc5c(n4)NCCO5)n3)c2)CC1 [Compound 1142, N4-(3,4-Dihydro-2H,4H-5-pyrid[1,4]oxazin-6-yl)-5-fluoro-N2-[3-(4-methylpiperazino)phenyl]-2,4-pyrimidinediamine]",,,"IC50 [1, 8]: < 10 µM; IC50 [1, 9]: < 10 µM; IC50 ([2]; tryptase): > 10 µM"
"Fc1cnc(Nc2cccc(-c3ncco3)c2)nc1Nc1ccc2c(n1)NCCO2 [Compound 1143, N4-(3,4-Dihydro-2H,4H-5-pyrid[1,4]oxazin-6-yl)-5-fluoro-N2-[3-(oxazol-2-yl)phenyl]-2,4-pyrimidinediamine]",,,"IC50 [1, 8]: < 10 µM; IC50 [1, 9]: < 10 µM; IC50 ([2]; tryptase): > 10 µM"
"COc1cc(Nc2ncc(F)c(Nc3ccc4c(n3)NCCO4)n2)cc(OC)c1OC [Compound 1145, N4-(3,4-Dihydro-2H,4H-5-pyrid[1,4]oxazin-6-yl)-5-fluoro-N2-(3,4,5-trimethoxyphenyl)-2,4-pyrimidinediamine]",< 10,> 10,"IC50 [1, 7]: < 10 µM"
"COc1ccc(Nc2ncc(F)c(Nc3ccc4c(n3)NCCO4)n2)cc1Cl [Compound 1146, N2-(3-Chloro-4-methoxyphenyl)-N4-(3,4-dihydro-2H,4H-5-pyrid[1,4]oxazin-6-yl)-5-fluoro-2,4-pyrimidinediamine]",,,"IC50 [1, 8]: < 10 µM; IC50 ([2]; tryptase): > 10 µM"
"CCOC(=O)N1CCN(c2ccc(Nc3ncc(F)c(N(C)C4CCC4)n3)cc2)CC1 [Compound 1148, N4-Cyclobutyl-N2-[4-(4-ethoxycarbonylpiperazino)phenyl]-5-fluoro-N4-methyl-2,4-pyrimidinediamine]",< 10,> 10,"IC50 [1, 7]: < 10 µM"
"CN(c1nc(Nc2cccc(N3CCOCC3)c2)ncc1F)C1CCC1 [Compound 1149, N4-Cyclobutyl-5-fluoro-N4-methyl-N2-(3-morpholinophenyl)-2,4-pyrimidinediamine]",< 10,> 10,
"CC(=O)N1CCN(c2cccc(Nc3ncc(F)c(N(C)C4CCC4)n3)c2)CC1 [Compound 1150, N2-[3-(4-Acetylpiperazino)phenyl]-N4-cyclobutyl-5-fluoro-N4-methyl-2,4-pyrimidinediamine]",< 10,> 10,
"CN1CCN(c2cccc(Nc3ncc(F)c(N(C)C4CCC4)n3)c2)CC1 [Compound 1151, N4-Cyclobutyl-5-fluoro-N4-methyl-N2-[3-(4-methylpiperazino)phenyl]-2,4-pyrimidinediamine]",< 10,> 10,"IC50 [1, 7]: < 10 µM"
"CCOC(=O)N1CCN(c2cccc(Nc3ncc(F)c(N(C)C4CCC4)n3)c2)CC1 [Compound 1152, N4-Cyclobutyl-N2-[3-(4-ethoxycarbonylpiperazino)phenyl]-5-fluoro-N4-methyl-2,4-pyrimidinediamine]",< 10,> 10,
"COc1cc(C(N)=O)c(Nc2ncc(F)c(N(C)C3CCC3)n2)cc1OCc1ccccc1 [Compound 1153, N2-(2-Aminocarbonyl-5-benzoxy-4-methoxyphenyl)-N4-cyclobutyl-5-fluoro-N4-methyl-2,4-pyrimidinediamine]",> 10,> 10,
